Results published in PMC10341805, “Positive Allosteric Modulator of SERCA Pump NDC-1173 Exerts Beneficial Effects in Mouse Model of Alzheimer’s Disease” (International Journal of Molecular Sciences, 2023).
Read-outs that look alike come from different tables or passages of the source.

How the values were obtained:
APP/PS1 mice [1] = test: Ca2+ imaging in APP/PS1 mice; design: species or system mouse
[2] = tested on: binding immunoglobulin protein (BiP/Grp78); test: qPCR of ER-stress marker BiP mRNA in hippocampus of treated APP/PS1 mice; assay type: in vivo, mouse; conditions: 30 mg/kg oral gavage 3 times per week for 8 weeks, vs untreated APP/PS1, normalized to Cyclophilin, mean ± SD
From the text: (§1) As previously established in Alzheimer’s disease (AD) research, ER stress is an apparent consequence of protein misfolding within AD pathophysiology. In response to this ER stress, cells activate a group of signaling pathways known as the unfolded protein response (UPR) that aims to restore ER function so the cell may survive. […] We examined the mRNA expression levels of these ER-stress markers in the hippocampus of APP/PS1 mice treated with NUCC-0226446, NUCC-0226614, NUCC-0226646, and NDC-1173 compounds compared to untreated APP/PS1 mice utilizing real-time quantitative PCR using primer sets indicated in Table 2. There was significant reduction (p = 0.0002) in the ER-stress marker, Chop, after treatment with NDC-1173 compared to untreated APP/PS1 mice (n = 9–11) (Figure 4, Table 3). […]
(§2) At 10 months of age, mice were rapidly decapitated, and the entire hippocampus was dissected and snap-frozen using liquid nitrogen. […] Total RNA concentration and purity was then measured using a NanoDrop spectrophotometer. […] Data were exported from the RT PCR machine into an excel worksheet. %CVs were calculated between triplicate well CT values to rule out technical outliers. […] Relative expression was then analyzed following the comparative CT method ( 2^−∆∆CT method).

[3] = tested on: C/EBP homologous protein (CHOP/Ddit3); test: qPCR of ER-stress marker CHOP mRNA in hippocampus of treated APP/PS1 mice; assay type: in vivo, mouse; conditions: 30 mg/kg oral gavage 3 times per week for 8 weeks, vs untreated APP/PS1, normalized to Cyclophilin, mean ± SD
From the text: as §1, §2

APP/PS1 mice [4] = test: Object recognition task; assay type: in vivo, mouse; conditions: 30 mg/kg oral gavage 3 times per week for 8 weeks, test 24 h after training
Protocol: (§3) To evaluate the effects of NUCC-0226446, NUCC-0226614, NUCC-0226646, and NDC-1173 on cognitive readouts in the AD mouse model, we treated APP/PS1 male and female mice with vehicle (10%DMSO/10%Tween80 in water) or SERCA PAMs (30 mg/kg) via oral gavage three times per week for 8 weeks, starting at 6 months of age. Open-field, object-recognition, and water maze assays were performed following treatment with 8-month-old mice. To test for locomotor activity changes in response to SERCA PAMs treatment in APP/PS1, we used the open-field test. The results obtained with NUCC-0226446, NUCC-0226614, NUCC-0226646 are shown in Supplementary Figure S1 and results with NDC-1173 are shown in Figure 3. […] There was a significant sex difference in the open field (F(1,27) = […]), but there was no sex by treatment interaction found.
(§4) Vehicle or NDC 1173 was administered via oral gavage 3 times per week for 8 weeks at a dose of 30 mg/kg in a vehicle containing 10%DMSO/10%Tween80 in water at a 3 mg/mL concentration. […]
The object recognition task (OR) was performed as previously described. […] Interaction was determined by the length of time the mouse’s nose was within 1 cm of a tightly drawn zone around each object. […] Time spent interacting with each object was then measured using Ethovision XT software (Version 15). […]

Na/K-ATPase = test: Selectivity test on Na/K-ATPase; assay type: biochemical; conditions: selectivity for SERCA
ryanodine receptor = test: Selectivity test on ryanodine receptor; assay type: biochemical; conditions: selectivity for SERCA
[5] = tested on: activating transcription factor 6 (ATF6); test: qPCR of ER-stress marker ATF6 mRNA in hippocampus of treated APP/PS1 mice; assay type: in vivo, mouse; conditions: 30 mg/kg oral gavage 3 times per week for 8 weeks, vs untreated APP/PS1, normalized to Cyclophilin, mean ± SD
From the text: as §1, §2

APP/PS1 mice [6] = test: Morris water maze (training and probe trial); assay type: in vivo, mouse; conditions: 30 mg/kg oral gavage 3 times per week for 8 weeks
Protocol: as §3, §4
The water maze consisted of 3 phases pre-training, training, and probe trial. […] Ethovision XT (Version 15) tracking software recorded the latency to the platform. […] During the probe trial, the platform was not present within the pool and the search pattern of the mouse is measured. […]

APP/PS1 mice [7] = test: Tolerability during 8 weeks of administration; assay type: in vivo, mouse; conditions: 30 mg/kg oral gavage 3 times per week for 8 weeks
Protocol: Vehicle or NDC 1173 was administered via oral gavage 3 times per week for 8 weeks at a dose of 30 mg/kg in a vehicle containing 10%DMSO/10%Tween80 in water at a 3 mg/mL concentration. The dose was chosen so that the drug would be on board while the first signs of amyloid plaques appear (6 mos) and before the time the disease had fully progressed. We chose to administer the drug 3 times per week to cause minimal stress to the mouse.

L-type Ca channel = test: Selectivity test on L-type Ca channel; assay type: biochemical; conditions: selectivity for SERCA
[8] = Pharmacokinetics in CD-1 mice (plasma and brain); assay type: in vivo, mouse
Protocol: Pharmacokinetics of NDC-1173 were assessed in CD-1 mice. The compound was formulated at 1 mg/mL in DMSO/Tween 80/water (10/10/80, vol/vol/vol) and dosed at 2 mg/kg intravenously (i.v.) or 10 mg/kg via oral gavage (P.O.) in triplicate. Blood was drawn at 0.25 h, 0.5 h, 1 h, 2 h, 4 h, 8 h, and 24 h into EDTA-containing tubes, and plasma was harvested via centrifugation. Plasma (10 μL) containing 50% acetonitrile in water (5 μL) was added to 200 µL of ACN containing an internal standard. The samples were vortexed for 30 s. After centrifugation at 4 °C and 4000 rpm for 15 min, the supernatant was diluted 3 times with water. Then, 20 µL of diluted supernatant was injected into the LC/MS/MS system for quantitative analysis. The samples were injected onto an Agilent ZORBAX XDB-Phenyl 5 μ column (50 × 2.10 mm). Mobile Phase A was water with 0.1% formic acid. Mobile Phase B was acetonitrile with 0.1% formic acid. Separation was achieved using a gradient of 70% A/30% B to 0% A/100% B over 2.10 min. A Shimadzu LCMS-8050 equipped with a turbo ion spray source was used for all analytical measurements. Data were fit using WinNonLin https://www.certara.com/software/phoenix-winnonlin/, accessed on 1 May 2023.

[9] = tested on: X-box binding protein 1 spliced variant (XBP1spl); test: qPCR of ER-stress marker XBP1spl mRNA in hippocampus of treated APP/PS1 mice; assay type: in vivo, mouse; conditions: 30 mg/kg oral gavage 3 times per week for 8 weeks, vs untreated APP/PS1, normalized to Cyclophilin, mean ± SD
From the text: as §1, §2

[10] = tested on: activating transcription factor 4 (ATF4); test: qPCR of ER-stress marker ATF4 mRNA in hippocampus of treated APP/PS1 mice; assay type: in vivo, mouse; conditions: 30 mg/kg oral gavage 3 times per week for 8 weeks, vs untreated APP/PS1, normalized to Cyclophilin, mean ± SD
From the text: as §1, §2

[11] = CD-1, mouse, plasma, oral administration 10 mg/kg

Structure (SMILES): Cc1ccc2cccc(NC(=O)c3ccc(OC(C)C)cc3)c2n1 [CDN-1163]
- Effect on Ca2+ homeostasis (APP/PS1 mice [1]): restores normal Ca^2+ homeostasis

Structure (SMILES): COc1c(C)cccc1C(=O)Nc1cccc2ccc(C)nc12 [NDC-1173, 2-methoxy-3-methyl-N-(2-methylquinolin-8-yl)benzamide]
- Fold-change of BiP mRNA expression [2]: 0.74 ± 0.401
- Fold-change of CHOP mRNA expression [3]: 0.52 ± 0.195
- Object memory (time spent with novel object) vs vehicle (APP/PS1 mice [4]): significant increase in time spent with the novel object
- Functional effect on Na/K-ATPase (Na/K-ATPase): no significant functional effects
- Functional effect on ryanodine receptor (ryanodine receptor): no significant functional effects
- Fold-change of ATF6 mRNA expression [5]: 0.79 ± 0.327
- Spatial learning in water maze training (4 days) vs vehicle (APP/PS1 mice [6]): did not have better performance in spatial learning
- Spatial memory in water maze probe trial (time in target quadrant) vs vehicle (APP/PS1 mice [6]; 24 h after last training): spent more time in the quadrant where the escape platform was located
- Adverse effects or weight loss (APP/PS1 mice [7]): no adverse effects or weight loss
- Functional effect on L-type Ca channel (L-type Ca channel): no significant functional effects
- half-life ([8]; CD-1, mouse, brain, oral administration 10 mg/kg, read-out: Brain t1/2 (converted)): 1.1 h
- Kp ([8]; CD-1, mouse, brain/plasma, oral administration 10 mg/kg, read-out: Brain/plasma ratio): 2.8
- AUC [8, 11]: 375 ng·h/mL
- Cmax [8, 11]: 1250 nM
- half-life ([8]; CD-1, mouse, plasma, oral administration 10 mg/kg, read-out: Plasma t1/2 (converted)): 0.9 h
- bioavailability ([8]; CD-1, mouse, plasma, oral, 10 mg/kg P.O. vs 2 mg/kg i.v.): 25.6%
- Brain concentration at 2 h ([8]; oral administration 10 mg/kg): 2500 nM
- Fold-change of XBP1spl mRNA expression [9]: 0.72 ± 0.577
- Fold-change of ATF4 mRNA expression [10]: 1.17 ± 0.496
